# Measured values reported in ChEMBL document CHEMBL1122041, “Molecular structures of 2,4-diaminopyrimidine antifolates with antineoplastic activity” (J Med Chem, 1982).
# Assays:
# Dihydrofolate reductase [1] = target: T1, Dihydrofolate reductase (Homo sapiens, UniProt P00374); test: Competitive inhibition of mammalian dihydrofolate reductase
# T1 sequence (P00374 whole entry): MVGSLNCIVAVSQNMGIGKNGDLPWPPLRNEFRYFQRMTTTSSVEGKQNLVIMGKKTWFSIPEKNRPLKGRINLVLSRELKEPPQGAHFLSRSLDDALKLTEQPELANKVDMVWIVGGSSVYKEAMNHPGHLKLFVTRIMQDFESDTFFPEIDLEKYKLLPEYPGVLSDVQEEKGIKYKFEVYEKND
# TA3 [2] = test: Evaluated for the concentration needed for 50% growth inhibition of mouse mammary adenocarcinoma cells (TA3) in culture.; type: functional; details: TA3, read-out: ID50
# Dihydrofolate reductase [3] = target: T1, Dihydrofolate reductase; test: Noncompetitive inhibition of mammalian Dihydrofolate reductase
# TA3 [4] = test: Evaluated for the concentration needed for 50% growth inhibition of mouse mammary adenocarcinoma cells (TA3) in culture; type: functional; details: TA3, read-out: ID50
SMILES,IC50 (TA3 [2]) [nM],IC50 (TA3 [4]) [nM],other results
Cc1nc(N)nc(N)c1NC(=O)C12CC3CC(CC(C3)C1)C2,–,–,Ki (Dihydrofolate reductase [1]): 9 nM
Cc1nc(N)nc(N)c1C12CC3CC(CC(C3)C1)C2,6,–,–
Cc1nc(N)nc(N)c1-c1cccc2ccccc12,–,–,Ki (Dihydrofolate reductase [3]): 56000 nM
CCc1nc(N)nc(N)c1C12CC3CC(CC(C3)C1)C2,0.25,–,–
Cc1nc(N)nc(N)c1-c1ccc2ccccc2c1,–,70,–
CN(Cc1cnc2nc(N)nc(N)c2n1)c1ccc(C(=O)N[C@@H](CCC(=O)O)C(=O)O)cc1 [METHOTREXATE],–,8,–
